In publication PMC7568253, “Evaluation of two xenobiotic reductases from Pseudomonas putida for their suitability for magnetic nanoparticle‐directed enzyme prodrug therapy as a novel approach to cancer treatment” (MicrobiologyOpen, 2020):

Biological target: T1, XenA-his (Pseudomonas putida, UniProt Q9R9V9)
T1 construct: about 39 kDa, described as monomeric flavoprotein
T1 sequence (Q9R9V9 1-363): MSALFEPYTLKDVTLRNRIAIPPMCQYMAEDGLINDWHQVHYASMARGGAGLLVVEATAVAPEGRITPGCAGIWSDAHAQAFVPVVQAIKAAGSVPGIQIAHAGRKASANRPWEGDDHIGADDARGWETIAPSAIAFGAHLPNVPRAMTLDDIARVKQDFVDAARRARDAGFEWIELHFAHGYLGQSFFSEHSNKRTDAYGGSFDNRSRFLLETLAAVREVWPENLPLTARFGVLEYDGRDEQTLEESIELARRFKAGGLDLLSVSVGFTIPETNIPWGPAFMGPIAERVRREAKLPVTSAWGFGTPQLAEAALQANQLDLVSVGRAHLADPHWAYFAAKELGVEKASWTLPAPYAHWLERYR
Experiment: reduction of nitro groups tested with purified enzyme
Type: biochemical

O=[N+]([O-])OCC(CO[N+](=O)[O-])O[N+](=O)[O-] [nitro-glycerin]
reduction of nitro groups tested with purified enzyme: it was able to reduce the NO2 groups present in the substrate
